In US9988390B2, “Pyrimidone derivatives and their use in the treatment, amelioration or prevention of a viral disease” (F. Hoffmann-La Roche AG, priority 2015, dated 2018):
Structures can show the parent of a compound that is named as a salt.

The compounds below were run on influenza A virus (A/WSN/33 NanoLuc reporter virus) in A549 cells (assay: microbe, parasite or virus in culture). Settings: A549, 24 h, read-out: IC50 values of viral replication inhibition in a cell-based Luciferase Reporter Assay (LRA).
Assay type: cell-based

Row | SMILES | IC50
1 | CC(C)N1C[C@H](C2c3ccccc3CCc3ccccc32)n2c(N)nc(=O)c(O)c2C1=O [Example 1a-5, (4S)-6-Amino-4-(10,11-dihydro-5H-dibenzo[a,d][7]annulen-5-yl)-9-hydroxy-2-(propan-2-yl)-3,4-dihydro-2H-pyrazino[1,2-c]pyrimidine-1,8-dione] | > 50000 nM
2 | CC(C)N1C[C@H](C(c2ccccc2)c2ccccc2)n2c([S+](C)[O-])nc(=O)c(O)c2C1=O (stereo partly drawn) [Ia-26, (4S)-4-Benzhydryl-9-hydroxy-2-isopropyl-6-methylsulfinyl-3,4-dihydropyrazino[1,2-c]pyrimidine-1,8-dione] | 127 nM
3 | Cc1nc(=O)c(O)c2n1[C@@H](C(c1ccccc1)c1ccccc1)CN(C(C)C)C2=O [Ia-40, (4S)-4-Benzhydryl-9-hydroxy-2-isopropyl-6-methyl-3,4-dihydropyrazino[1,2-c]pyrimidine-1,8-dione] | 119 nM
4 | COc1nc(=O)c(O)c2n1C(C1c3cccc(F)c3CCc3c(F)cccc31)CN(C(C)C)C2=O (centres unmarked) [Example 1a-20, 4-(1,9-Difluoro-10,11-dihydro-5H-dibenzo[a,d][7]annulen-5-yl)-9-hydroxy-6-methoxy-2-(propan-2-yl)-3,4-dihydro-2H-pyrazino[1,2-c]pyrimidine-1,8-dione] | 16 nM
5 | CC(C)N1C[C@H](C(c2ccccc2)c2ccccc2)n2c(c(O)c(=O)n(C)c2=O)C1=O [Example 1b-1, (4S)-4-Benzhydryl-9-hydroxy-2-isopropyl-7-methyl-3,4-dihydropyrazino[1,2-c]pyrimidine-1,6,8-trione] | 1660 nM
6 | COCCOc1nc(=O)c(O)c2n1[C@@H](C(c1ccccc1)c1ccccc1)CN(C)C2=O [Ia-73, (4S)-4-Benzhydryl-9-hydroxy-6-(2-methoxyethoxy)-2-methyl-3,4-dihydropyrazino[1,2-c]pyrimidine-1,8-dione] | 119 nM
7 | COc1ccc(CNc2nc(=O)c(O)c3n2[C@@H](C(c2ccccc2)c2ccccc2)CN(C(C)C)C3=O)cc1 [Example 1a-2, (4S)-4-Benzhydryl-9-hydroxy-2-isopropyl-6-[(4-methoxyphenyl)methylamino]-3,4-dihydropyrazino[1,2-c]pyrimidine-1,8-dione formate] | 2070 nM
8 | CC(C)N1C[C@H](C(c2ccccc2)c2ccccc2)n2c(S)nc(=O)c(O)c2C1=O [Ia-28, (4S)-4-benzhydryl-9-hydroxy-2-isopropyl-6-sulfanyl-3,4-dihydropyrazino[1,2-c]pyrimidine-1,8-dione] | 61 nM
9 | CC(C)N1C[C@H](C(c2ccccc2)c2ccccc2)n2c(NCC(F)(F)F)nc(=O)c(O)c2C1=O [Ia-33, (4S)-4-Benzhydryl-9-hydroxy-2-isopropyl-6-(2,2,2-trifluoroethylamino)-3,4-dihydropyrazino[1,2-c]pyrimidine-1,8-dione] | 273 nM
10 | CCCCOc1nc(=O)c(O)c2n1[C@@H](C(c1ccccc1)c1ccccc1)CN(C(C)C)C2=O [Example 1a-15, (4S)-4-Benzhydryl-6-butoxy-9-hydroxy-2-isopropyl-3,4-dihydropyrazino[1,2-c]pyrimidine-1,8-dione] | 15300 nM
11 | COc1nc(=O)c(O)c2n1[C@@H](C1c3cccc(F)c3CCc3c(F)cccc31)[C@H](C)N(C)C2=O [Example 1a-21, (3S,4S)-4-(1,9-Difluoro-10,11-dihydro-5H-dibenzo[a,d][7]annulen-5-yl)-9-hydroxy-6-methoxy-2,3-dimethyl-3,4-dihydro-2H-pyrazino[1,2-c]pyrimidine-1,8-dione] | 15 nM
12 | CC(C)N1C[C@H](C(c2ccccc2)c2ccccc2)n2c(C(N)=O)nc(=O)c(O)c2C1=O [Ia-52, (4S)-4-Benzhydryl-9-hydroxy-2-isopropyl-1,8-dioxo-3,4-dihydropyrazino[1,2-c]pyrimidine-6-carboxamide] | 93 nM
13 | CCSc1nc(=O)c(O)c2n1[C@@H](C(c1ccccc1)c1ccccc1)CN(C(C)C)C2=O [Ia-24, (4S)-4-Benzhydryl-6-ethylsulfanyl-9-hydroxy-2-isopropyl-3,4-dihydropyrazino[1,2-c]pyrimidine-1,8-dione] | 11900 nM
14 | COc1nc(=O)c(O)c2n1[C@@H](C1c3ccccc3CCc3ccccc31)CN(C(C)C)C2=O [Example 1a-8, (4S)-4-(10,11-Dihydro-5H-dibenzo[a,d][7]annulen-5-yl)-9-hydroxy-6-methoxy-2-(propan-2-yl)-3,4-dihydro-2H-pyrazino[1,2-c]pyrimidine-1,8-dione] | 6 nM
15 | CC(C)N1CC(C2c3cccc(F)c3CCc3c(F)cccc32)n2c(O)nc(=O)c(O)c2C1=O (centres unmarked) [Ia-25, 4-(4,7-Difluoro-6,11-dihydro-5H-dibenzo[1,3-b:3′,1′-e][7]annulen-11-yl)-6,9-dihydroxy-2-isopropyl-3,4-dihydropyrazino[1,2-c]pyrimidine-1,8-dione] | 86 nM
16 | CNc1nc(=O)c(O)c2n1[C@@H](C(c1ccccc1)c1ccccc1)CN(C(C)C)C2=O [Ia-49, (4S)-4-Benzhydryl-9-hydroxy-2-isopropyl-6-(methylamino)-3,4-dihydropyrazino[1,2-c]pyrimidine-1,8-dione] | 880 nM

Row | SMILES | IC50
17 | CC(C)N1C[C@H](C(c2ccccc2)c2ccccc2)n2c(c(O)c(=O)n(Cc3ccccc3)c2=O)C1=O [Example 1b-2, (4S)-4-Benzhydryl-7-benzyl-9-hydroxy-2-isopropyl-3,4-dihydropyrazino[1,2-c]pyrimidine-1,6,8-trione] | 4300 nM
18 | COc1nc(=O)c(O)c2n1[C@@H](C(c1ccccc1)c1ccccc1)CN(C)C2=O [Ia-65, (4S)-4-Benzhydryl-9-hydroxy-6-methoxy-2-methyl-3,4-dihydropyrazino[1,2-c]pyrimidine-1,8-dione] | 26 nM
19 | CC(C)N1C[C@H](C(c2ccccc2)c2ccccc2)n2c(NS(C)(=O)=O)nc(=O)c(O)c2C1=O [Example 1a-17, N-[(4S)-4-benzhydryl-9-hydroxy-2-isopropyl-1,8-dioxo-3,4-dihydropyrazino[1,2-c]-pyrimidin-6-yl]methanesulfonamide] | 1670 nM
20 | CC(C)N1C[C@H](C(c2ccccc2)c2ccccc2)n2c(C#N)nc(=O)c(O)c2C1=O [Ia-51, (4S)-4-Benzhydryl-9-hydroxy-2-isopropyl-1,8-dioxo-3,4-dihydropyrazino[1,2-c]pyrimidine-6-carbonitrile] | 368 nM
21 | CC(C)N1CC(C2c3ccccc3CCc3ccccc32)n2c(CO)nc(=O)c(O)c2C1=O (centres unmarked) [Ia-48, 4-(6,11-Dihydro-5H-dibenzo[2,1-b:1′,2′-e][7]annulen-11-yl)-9-hydroxy-6-(hydroxymethyl)-2-isopropyl-3,4-dihydropyrazino[1,2-c]pyrimidine-1,8-dione] | 20 nM
22 | CC(C)Nc1nc(=O)c(O)c2n1[C@@H](C(c1ccccc1)c1ccccc1)CN(C(C)C)C2=O [Ia-35, (4S)-4-Benzhydryl-9-hydroxy-2-isopropyl-6-(isopropylamino)-3,4-dihydropyrazino[1,2-c]pyrimidine-1,8-dione] | 324 nM
23 | CC(C)N1C[C@H](C(c2ccccc2)c2ccccc2)n2c(S(C)(=O)=O)nc(=O)c(O)c2C1=O [Ia-38, (4S)-4-Benzhydryl-9-hydroxy-2-isopropyl-6-methylsulfonyl-3,4-dihydropyrazino[1,2-c]pyrimidine-1,8-dione] | 110 nM
24 | CNC(=N)Nc1nc(=O)c(O)c2n1[C@@H](C(c1ccccc1)c1ccccc1)CN(C(C)C)C2=O [Ia-50, 1-[(4S)-4-Benzhydryl-9-hydroxy-2-isopropyl-1,8-dioxo-3,4-dihydropyrazino[1,2-c]pyrimidin-6-yl]-3-methyl-guanidine] | 1070 nM
25 | CC(C)N1C[C@H](C2c3ccccc3CCc3ccccc32)n2c(O)nc(=O)c(O)c2C1=O [Example 1a-10, (4S)-4-(10,11-Dihydro-5H-dibenzo[a,d][7]annulen-5-yl)-6,9-dihydroxy-2-(propan-2-yl)-3,4-dihydro-2H-pyrazino[1,2-c]pyrimidine-1,8-dione] | 98 nM
26 | CC(=O)NCc1nc(=O)c(O)c2n1[C@@H](C(c1ccccc1)c1ccccc1)CN(C(C)C)C2=O [Ia-55, N-[[(4S)-4-Benzhydryl-9-hydroxy-2-isopropyl-1,8-dioxo-3,4-dihydropyrazino[1,2-c]pyrimidin-6-yl]methyl]acetamide] | 473 nM
27 | CC(C)N1C[C@H](C(c2ccccc2)c2ccccc2)n2c(NCc3ccccc3)nc(=O)c(O)c2C1=O [Example 1a-1, (4S)-4-Benzhydryl-6-(benzylamino)-9-hydroxy-2-isopropyl-3,4-dihydropyrazino[1,2-c]pyrimidine-1,8-dione] | 153 nM
28 | CCc1nc(=O)c(O)c2n1[C@@H](C(c1ccccc1)c1ccccc1)CN(C(C)C)C2=O [Ia-41, (4S)-4-Benzhydryl-6-ethyl-9-hydroxy-2-isopropyl-3,4-dihydropyrazino[1,2-c]pyrimidine-1,8-dione] | 77 nM
29 | CC(C)N1C[C@H](C(c2ccccc2)c2ccccc2)n2c(-c3nnn[nH]3)nc(=O)c(O)c2C1=O [Ia-53, (4S)-4-Benzhydryl-9-hydroxy-2-isopropyl-6-(1H-tetrazol-5-yl)-3,4-dihydropyrazino[1,2-c]pyrimidine-1,8-dione] | 20200 nM
30 | CC(C)N1C[C@H](C(c2ccccc2)c2ccccc2)n2c(CN)nc(=O)c(O)c2C1=O [Ia-54, (4S)-6-(Aminomethyl)-4-benzhydryl-9-hydroxy-2-isopropyl-3,4-dihydropyrazino[1,2-c]pyrimidine-1,8-dione] | 931 nM
31 | CC(C)N1C[C@H](C(c2ccccc2)c2ccccc2)n2c(O)nc(=O)c(O)c2C1=O [Example 1a-6, (4S)-4-Benzhydryl-6,9-dihydroxy-2-isopropyl-3,4-dihydropyrazino[1,2-c]pyrimidine-1,8-dione] | 218 nM

Same assay, conditions: A549, isomers identified by X-ray analysis, read-out: IC50

Row | SMILES | IC50
32 | COc1nc(=O)c(O)c2n1[C@@H]([C@H]1c3ccccc3CSc3ccccc31)CN(C(C)C)C2=O (single isomer, unassigned) [Example 14] | 2 nM
